# Measurements taken from patent publication EP2985032B1, “GLYX FOR USE IN THE TREATMENT OF ALZHEIMER'S DISEASE, PARKINSON'S DISEASE OR HUNTINGTON'S DISEASE” (Northwestern University, priority 2009, dated 2019).
# No end group written: not given here.
# Experiments:
# [1] = system: rats; assay: Porsolt test (Forced Swim Test) of depression; type: in vivo; set-up: Mean Immobility Time: unit not given beside the values; conditions: for maximum reduction in floating compared to saline vehicle / Mean Immobility Time: Example 2; for maximum reduction in floating compared to saline vehicle: P < .01
# Method: For the evaluation of the antidepressant actions of GLYX-13, the effect of GLYX-13 in the Porsolt test of depression was examined in rats. Porsolt testing is the most commonly used test for assessment of depression in animal model. Porsolt testing, also known as Forced Swim Test, is based on a behavioral trait that is sensitive to changes in affective state. During this test, the animal is placed in a tank (18 cm diameter x 45 cm height) filled to 30 cm with 22-23°C water. After placing the animal in the tank, the amount of time for which the rat is immobile when it stops struggling is measured. Porsolt test is based on the fact that antidepressants increase the latency to immobility and decrease the time for which the rat is immobile. […] The interpretation of the Porsolt test is that the antidepressants reinstate active coping mechanisms and decrease the passive immobility evoked by stress.
# (§1) In order to evaluate the effectiveness of GLYX-13 as antidepressant, three month old FBNF1 rats were separated into two groups of 9 animals. The first group of rats was intravenously injected with 10 mg/kg GLYX-13 and the second group of animals was intravenously injected with PBS vehicle (1 ml/kg) in a blind manner via chronic subdural femoral vein access ports. Both groups of animals were injected 10 to 15 minutes before the start of testing.
# For Porsolt testing, animals were given a 15 minute pre-test habituation in the tank to induce learned helplessness on day one. Following this, on the subsequent day, the animals were injected with GLYX-13 or vehicle 10-15 minutes before being placed into the tank for a 5 minute test session. After placing the animals in the tank, the amount of time for which each animal is immobile when it stops struggling (Mean Immobility Time) was measured. Decrease in Mean Immobility Time is a measure of the effectiveness of the antidepressant.
# A second experiment was performed in the same manner as Example 1, except that 2-3 month Sprague-Dawley rats were used, and treated with either intravenous (1, 3, 10, 32 mg / kg), subcutaneous (1,3, 10, 32, 56, 100 mg / kg) injections of GLYX-13 or saline vehicle (1 mg / ml) 15 (i.v.) or 20 (s.c.) min before the start of the final 5 min test session. Ketamine (10 mg / kg i.p.) was given 60 min before the start of testing (Garcia et al., (2008) Prog Neuropsychopharmacol Biol Psychiatry, 32, 140-144). Subcutaneous administration of 10 mg/kg ketamine followed by testing after 20 min post dosing produced severe dissociative side effects, as shown in Figure 3.
# To determine whether GLYX-13 acts in an area of the brain that is clinically relevant for depression, GLYX-13 was administered to either the medial prefrontal cortex (MPFC), which is associated with mood and depression, or to the motor cortex (Fig. 4). Mean time spent immobile in the Porsolt test was determined for groups of 10 three-month old male Fisher Brown Norway F1 (FBNF1) rats pretreated with a single injection of GLYX-13 (1, 10 ug / side) or a single saline vehicle injection (0.5 ul / 1 min) bilaterally into the medial prefrontal cortex or motor cortex (dorsal control) in animals with surgically implanted chronic indwelling cannulae aimed at the MPFC. Microinjections were made 1 week after surgery, and Porsolt testing was conducted 20 min post injection. Animals received a single 15 min training swim session one day before dosing.
# To determine whether the antidepressant effect of GLYX-13 was specific to the sequence of the GLXY-13 peptide, mean time (sec) spent floating in the Porsolt test was determined in groups of 12 three-month old Sprague Dawley rats administered with GLYX-13 (TPPT-NH2; 3 mg / kg, i.v. tail vein), a scrambled peptide ([…]; 3 mg / kg i.v. tail vein), or 0.9% saline vehicle (1 ml / kg, i.v. tail vein). Administration occurred 60 min before the 5 min. testing session. Animals received a 15 min. training swim session one day before dosing. […]
# [2] = system: rats; assay: 50-kHz ultrasonic vocalizations model of positive affect (rough-and-tumble play); type: in vivo; conditions: Example 8; 10 mg/kg i.v., 10-15 min before test; FBNF1 rats; Mean ± SEM; P < .01
# Excerpt: To evaluate the hedonic effect of GLYX-13 in this study, the 50-kHz ultrasonic vocalizations model of positive affect was examined in rats (see, Burgdorf, J., Panksepp, J., Brudzynski, S.M., Kroes, R.A. & Moskal, J.R. (2008). The effect of selective breeding for differential rates of 50-kHz ultrasonic vocalizations on emotional behavior in rats. Devel. Psychobiology, 51, 34-46.).
# As a part of the study, two groups of three month old FBNF1 rats were used. The first group was composed of 13 rats and the second group was composed of 11 rats. The first group of rats was intravenously injected with 10mg/kg GLYX-13 and the second group of rats was intravenously injected with PBS vehicle (1 ml/kg) in a blind manner via chronic […] femoral vein access ports. Both groups of rats were injected 10 to 15 minutes before the start of test.
# For hedonic ultrasonic vocalizations (USVs), animals received 2 minutes of heterospecific RTP habituation before the final 2 minutes test session.
# [3] = system: rats; assay: Open field test of anxiety; type: in vivo; conditions: for increase in the amount of time spent in the center of the field compared to vehicle: Example 6, P < .05
# Method: The purpose of this study was to evaluate action of GLYX-13 on anxiety. In order to gauge the effect of GLYX-13 in rats, the open field test of anxiety was conducted. The open field test is a widely used neophobic test of anxiety (see, Treit D, Fundytus M. Thigmotaxis as a test for anxiolytic activity in rats. Pharmachol Biochem Behav 1989;31:959-62.).
# The open field area used for the open field test generally consists of an empty and bright square (or rectangular) arena, surrounded by walls. For the current study, an open field of 45 cm X 35 cm X 20 cm high was used. The rat was placed in the center of the arena and its behavior recorded over a predefined period of time (usually between 2 to 15 min). The open field test is based on the natural tendency of the rats to avoid open spaces. The open field test is based on the conflict between the innate anxiety that rats have of the central area of the open space versus their desire to explore new environments. When rats are in an anxious state, they have a natural tendency to stay near the walls. This natural tendency of the rats to stay close to the walls is called thigmotaxis. In this context, anxiety-related behavior is measured by the degree to which the rat avoids the center of the open field test. Determining the propensity of the rat to avoid the open field can be determined by measuring the number of center crosses made by the rats over a predefined interval of time, or by determining the amount of time the rat stays in the center of the field.
# as §1, with “an anxiolytic, two groups of” for “antidepressant,”, “used. The first group was composed” for “separated into two groups”, “13 rats and the second group was composed of 11 rats.” for “9 animals.”, “rats” for “animals”, “testing. After GLYX-13 injections, both groups of rats were tested in the open field.” for “testing.”
# For the open field test, rats were habituated to the open field for 2 minutes each day for three consecutive days before the final 2 minute test session in which GLYX-13 or vehicle was administered. Open field activity was recorded by a video camera mounted above the open field area, and number of center crosses in the open field was measured.
# A second experiment was performed in the same manner as Example 3, except that groups of 8-10 two- to three-month old male Sprague-Dawley rats pretreated with either intravenous (1, 3, 10, 32 mg / kg), subcutaneous (1, 3, 10, 32, 56, 100 mg / kg) injections of GLYX-13, ketamine (10 mg/kg i.p.) or saline vehicle (1 mg / ml) 15 min (i.v.), 20 (s.c.) or 60 (i.p.) min before the start of the 5 min test session. Each data point represents a group of 8-10 rats. The average (mean) amount of time animals spent in the center of the field was measured.
# To evaluate whether the anti-depressive and anxiolytic effects of GLYX-13 would persist beyond a few hours, rats were tested in the Porsot test and the Open Field test, described above. […] Mean (± SEM) time (sec.) spent floating in the Porsolt test, time spent in the center compartment (sec.), and line crosses in the open field test were determined.
# [4] = system: rats; assay: Porsolt test (Forced Swim Test) of depression; type: in vivo; set-up: Mean Immobility Time: unit not given beside the values
# [5] = system: rat hippocampal organotypic cultures; assay: LTP / LTD in hippocampal organotypic cultures; type: cell-based; conditions: in vitro
# [6] = Example 7, 3 mg / kg i.v., Sprague-Dawley rats
substance,measurement,setting,value
"L-threonyl-L-prolyl-L-prolyl-L-threonine amide (TPPT-NH2) [GLYX-13, NMDAR glycine-site partial agonist]",reduction in floating compared to PBS vehicle,"[1]; Example 1, 10 mg/kg i.v., 10-15 min before test, three month old FBNF1 rats, Mean ± SEM, P < .0001",56.4 ± 4.6%
same,maximum reduction in floating compared to saline vehicle,"[1]; administered intravenously, Sprague-Dawley rats, Mean ± SEM",50 ± 10%
same,maximum reduction in floating compared to saline vehicle,"[1]; administered subcutaneously, Sprague-Dawley rats, Mean ± SEM",43 ± 7%
same,Mean Immobility Time,"[1]; i.v., dose 3 (mg/kg), 15 min before test, Sprague-Dawley rats",66.14 ±27.53
same,Mean Immobility Time,"[1]; i.v., dose 10 (mg/kg), 15 min before test, Sprague-Dawley rats",60.6 ±14.7
same,Mean Immobility Time,"[1]; i.v., dose 32 (mg/kg), 15 min before test, Sprague-Dawley rats",87.19±17.85
same,Mean Immobility Time,"[1]; s.c., dose 1 (mg/kg), 20 min before test, Sprague-Dawley rats",135.5 ±22.0
same,Mean Immobility Time,"[1]; s.c., dose 3 (mg/kg), 20 min before test, Sprague-Dawley rats",100.2 ±15.7
same,Mean Immobility Time,"[1]; s.c., dose 10 (mg/kg), 20 min before test, Sprague-Dawley rats",76.9 ±9.7
same,Mean time spent immobile,"[1]; Example 3, MPFC injection, dose 1 (ug / side), FBNF1 rats, Mean ± SEM",53.46 ±10.65
same,Mean time spent immobile,"[1]; Example 3, MPFC injection, dose 10 (ug / side), FBNF1 rats, Mean ± SEM",62.54±8.7
same,reduction in floating compared to a saline control or to GLYX-13 injected into motor cortex,"[1]; Example 3, injected bilaterally into the MPFC, FBNF1 rats, 20 min post injection, Mean ± SEM",50 ± 5%
same,Mean time spent immobile,"[1]; Example 3, injected into motor cortex (dorsal control), FBNF1 rats, Mean ± SEM",113.7 ±13.1
same,reduction in mean floating time compared to saline injection or scrambled peptide,"[1]; Example 4, 3 mg / kg i.v. tail vein, 60 min before test, Sprague Dawley rats, Mean ± SEM",70 ± 5%
same,reduction in mean floating time compared to saline control,"[1]; Example 7, 3 mg / kg i.v., tested 96 hrs post dosing, Sprague-Dawley rats, mean ± SEM",82% ± 2
same,duration of antidepressant effects of a single administration,[1]; [6],up to 4 days
same,onset of action,"[1]; single dose, rats",within minutes
same,increase in rates of play-induced positive affective 50-kHz USVs compared to vehicle,[2],178.5 ± 48.3%
same,increase in center crosses compared to vehicle,"[3]; Example 5, 10 mg/kg i.v., 10-15 min before test, FBNF1 rats, Mean ± SEM, P < .005",172.6 ± 34.3%
same,increase in the amount of time spent in the center of the field compared to vehicle,"[3]; intravenous administration, 15 min before test, Sprague-Dawley rats, Mean ± SEM",42± 5%
same,increase in the amount of time spent in the center of the field compared to vehicle,"[3]; subcutaneous administration, 20 min before test, Sprague-Dawley rats, Mean ± SEM",36 ± 5%
same,increase in mean center time compared to saline control,"[3]; Example 7, 3 mg / kg i.v., tested 120 hrs post dosing, Sprague-Dawley rats, mean ± SEM",125% ± 5
same,duration of anxiolytic effects of a single administration,[3]; [6],up to 5 days
same,Mean Immobility Time,"[4]; Example 2, i.v., dose printed as 2, 15 min before test, Sprague-Dawley rats",84.9 ±15.0
same,Mean time spent immobile,"[4]; Example 3, MPFC injection, dose 0.1 (ug / side), FBNF1 rats, Mean ± SEM",108.77 ±12.34
same,long-term depression (LTD),[5],reducing
same,long-term potentiation (LTP),[5],markedly elevate
